What is called viability is a per cent measure of how many cells are alive, often set against a control.

We go through one compound from patent publication US11110138B2 (priority 2012, dated 2021).

The nature of the series: in vitro. The settings on record: African green monkey.

In the case of `CS(=O)(=O)OCCCCOS(C)(=O)=O` [busulfan], the viability was roughly 82%.
